The values that follow come from ChEMBL document CHEMBL1150512, “A new class of angiotensin II receptor antagonists with a novel acidic bioisostere” (Bioorg Med Chem Lett, 1995).

Series [1] deals with T1, Type-1 angiotensin II receptor (Bos taurus, UniProt P25104).
T1 sequence (P25104 whole entry): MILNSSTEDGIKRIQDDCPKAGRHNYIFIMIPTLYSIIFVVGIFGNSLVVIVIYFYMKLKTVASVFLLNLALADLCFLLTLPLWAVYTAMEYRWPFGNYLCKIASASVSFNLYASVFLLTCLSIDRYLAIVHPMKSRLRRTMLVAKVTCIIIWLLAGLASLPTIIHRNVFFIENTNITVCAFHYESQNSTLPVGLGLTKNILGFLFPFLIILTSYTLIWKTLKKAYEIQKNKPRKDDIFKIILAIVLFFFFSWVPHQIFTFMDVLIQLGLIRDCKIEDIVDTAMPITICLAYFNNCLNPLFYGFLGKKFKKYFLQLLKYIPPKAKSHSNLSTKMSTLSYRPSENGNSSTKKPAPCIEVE
In words: Displacement of [125 I]-AII (0.2 nM) from bovine adrenal cortical membrane angiotensin II (AII) receptor at 10e-7 M.

For series [2], the system named is Rattus norvegicus. In words: Inhibitory activity against the pressor response induced by Angiotensin II (AII) in conscious rats, at 1 mg/kg p.o. at 3h. Particulars: route oral. It counts as functional.
The subject of series [3] is Rattus norvegicus. Nature of the series: Inhibitory activity against the pressor response induced by angiotensin II (AII) in conscious rats, at 1 mg/kg p.o. at 7 hr. It is filed as functional. Particulars: route oral.
Series [4] relates to Rattus norvegicus. In words: Inhibitory activity against the pressor response induced by Angiotensin II (AII) in conscious rats, at 1 mg/kg p.o. at 7 hr. Particulars: route oral. It counts as functional.
Series [5] relates to Rattus norvegicus. In words: Tested for dose-dependent inhibition of Angiotensin II (AII)-induced pressor response at more than 0.01 mg/kg, p.o. It is filed as functional. The conditions noted are these: route oral, read-out: ID50 (the source's name).
Series [6] in a line: Percent oral bioavailability examined in rats. It counts as ADME, organism-based. The conditions noted are these: rat, in vivo.
For series [7], the system named is Rattus norvegicus. Nature of the series: Dose-dependent reduction of blood pressure in spontaneously hypertensive rats administered orally (antihypertensive effect). It is filed as functional. Particulars: po.
Series [8] is filed under the species Rattus norvegicus. In words: pD2 value of compound was determined. It is filed as functional.
Series [9] can be described thus: Partition coefficient (logP). It counts as physicochemical. The conditions noted are these: octanol/water.
For series [10], the system named is Rattus norvegicus. Nature of the series: Inhibitory activity against the pressor response induced by angiotensin II (AII) in conscious rats, at 1 mg/kg p.o. at 3h. It is filed as functional. The conditions noted are these: route oral.

Take `CCc1nc2cccc(C(=O)O)c2n1Cc1ccc(-c2ccccc2-c2noc(O)n2)cc1`: in [1], the IC50 came out at 310 nM. The inhibition in vivo at 1 mg/kg worked out at 88% in the series with Rattus norvegicus [2] and 67% with Rattus norvegicus [3].
As to `CNc1nc2cccc(C(=O)O)c2n1Cc1ccc(-c2ccccc2-c2noc(O)n2)cc1`, the results for the inhibition in vivo at 1 mg/kg with Rattus norvegicus [4] and in the series with Rattus norvegicus [2] were 13% and 14%, respectively. The IC50 in series [1] worked out at 260 nM.
As for `CCNc1nc2cccc(C(=O)O)c2n1Cc1ccc(-c2ccccc2-c2noc(O)n2)cc1`, the inhibition in vivo at 1 mg/kg with Rattus norvegicus [4] stood at 6%; in the series on Rattus norvegicus [2], 25%. This molecule also returned an IC50 in series [1] of 42 nM.
On the same counts, the results for `CCCOc1nc2cccc(C(=O)O)c2n1Cc1ccc(-c2ccccc2-c2noc(O)n2)cc1` are 100%, 100% and 790 nM.
On the same counts, the results for `CCSc1nc2cccc(C(=O)O)c2n1Cc1ccc(-c2ccccc2-c2noc(O)n2)cc1` are 100%, 83% and 480 nM.
On the same counts, the results for `CCCCc1nc2cccc(C(=O)O)c2n1Cc1ccc(-c2ccccc2-c2noc(O)n2)cc1` are 64%, 68% and 620 nM.
Regarding `CCCSc1nc2cccc(C(=O)O)c2n1Cc1ccc(-c2ccccc2-c2noc(O)n2)cc1`, the results for the inhibition in vivo at 1 mg/kg in the series with Rattus norvegicus [4] and in the series with Rattus norvegicus [2] were 100% and 80%, respectively. The molecule further registered an IC50 in series [1] of 850 nM.
On the same counts, the results for `CSc1nc2cccc(C(=O)O)c2n1Cc1ccc(-c2ccccc2-c2noc(O)n2)cc1` are 100%, 100% and 390 nM.
Take `COc1nc2cccc(C(=O)O)c2n1Cc1ccc(-c2ccccc2-c2noc(O)n2)cc1`: the inhibition in vivo at 1 mg/kg in the series with Rattus norvegicus [4] stood at 88%; in the series with Rattus norvegicus [2] it was 90%. The same molecule gave an IC50 in series [1] of 360 nM.
Take `CCCc1nc2cccc(C(=O)O)c2n1Cc1ccc(-c2ccccc2-c2noc(O)n2)cc1`: the inhibition in vivo at 1 mg/kg in the series on Rattus norvegicus [4] is 88%; in the series with Rattus norvegicus [2], 100%. Moreover, the IC50 in series [1] is 420 nM.
In the case of `CCOc1nc2cccc(C(=O)O)c2n1Cc1ccc(-c2ccccc2-c2noc(=O)[nH]2)cc1` [AZILSARTAN], the inhibition in vivo at 1 mg/kg in the series with Rattus norvegicus [4] and with Rattus norvegicus [2] was 100% each time. Also, the IC50 in [1] was 420 nM. Also, the ED50 in the series on Rattus norvegicus [5] is 0.06 mg/kg. In addition, the bioavailability in series [6] was determined as 20%. Also, in the series with Rattus norvegicus [7], the ED25 was 0.4 mg/kg. In the series filed under Rattus norvegicus [8], this molecule showed a pD2 of 9.93. This molecule also showed a logP in series [9] of 0.9.
In the series on Rattus norvegicus [7], `CCOc1nc2cccc(C(=O)OC(C)OC(=O)OC3CCCCC3)c2n1Cc1ccc(-c2ccccc2-c2nn[nH]n2)cc1` (stereo not given) [CANDESARTAN CILEXETIL] returned an ED25 of 0.68 mg/kg.
Turning to `CCOc1nc2cccc(C(=O)O)c2n1Cc1ccc(-c2ccccc2-c2nnn[nH]2)cc1` [CANDESARTAN], the inhibition in vivo at 1 mg/kg in the series on Rattus norvegicus [10] stood at 100%; in the series on Rattus norvegicus [3] it was 92%. In the series listed under Rattus norvegicus [8], this molecule returned a pD2 of 9.97. The molecule further came in with a logP in [9] of 0.32.
As to `CCCCc1nc(Cl)c(CO)n1Cc1ccc(-c2ccccc2-c2nnn[nH]2)cc1` [LOSARTAN], the inhibition in vivo at 1 mg/kg in the series on Rattus norvegicus [10] is 21%; in the series with Rattus norvegicus [3] it was 34%.

The term IC50 denotes the concentration needed to halve the response being measured. As a reminder, the inhibition in vivo is the drop in the measured response relative to a control, in per cent. As a reminder, the bioavailability is dose-corrected exposure relative to a reference, in per cent. The low end stands for little systemic uptake, the high end for much systemic uptake. Broadly, the logP is the decadic logarithm of the partition coefficient of the neutral form, usually between octanol and water. A lower logP goes with a more hydrophilic compound.
